Activity calls are given as the source filed them. The rule behind the calls is not given here.

Experimental findings from ChEMBL document CHEMBL4406882, “The plant-derived chalcone Xanthoangelol targets the membrane of Gram-positive bacteria” (Bioorg Med Chem, 2019) are described below.

The subject of assay [1] is Staphylococcus aureus. Briefly: Induction of membrane integrity impairment in methicillin-resistant Staphylococcus aureus ATCC 700699 at 3.125 to 12.5 uM measured for 30 mins by DiOC2(3) probe based fluorescence assay. In kind it is functional, organism-based.
Assay [2] deals with Staphylococcus aureus. Briefly: Induction of membrane integrity impairment in methicillin-resistant Staphylococcus aureus ATCC 700699 at 10 uM measured for 3 hrs by PI staining based fluorescence assay. The format is functional, organism-based.
Assay [3] deals with Staphylococcus aureus. Briefly: Antibacterial activity against mid-exponential growth phase of methicillin-resistant Staphylococcus aureus ATCC 700699 assessed as increase in cell lysis at 25 uM. In kind it is functional, organism-based.
Assay [4] relates to Staphylococcus aureus. In words: Bactericidal activity against methicillin-resistant Staphylococcus aureus ATCC 700699 assessed as reduction in bacterial CFU at 4 times MIC measured for 30 mins. The format is functional.
Assay [5] relates to Staphylococcus aureus. Briefly: Induction of membrane integrity impairment in methicillin-resistant Staphylococcus aureus ATCC 700699 at 20 uM measured for 30 mins by DiOC2(3) probe based fluorescence assay. The format is functional, organism-based.

For `N#CC(C#N)=NNc1cccc(Cl)c1`, the result in the assay with Staphylococcus aureus [1] was Active.

On to `COc1c(N2C[C@@H]3CCCN[C@@H]3C2)c(F)cc2c(=O)c(C(=O)O)cn(C3CC3)c12`, for which the outcome in the assay with Staphylococcus aureus [2], with Staphylococcus aureus [3], in the assay with Staphylococcus aureus [4] and in the assay on Staphylococcus aureus [5] was inactive.
